Test results taken from ChEMBL document CHEMBL5321213, “Nicolaioidesin C: An Antiausterity Agent Shows Promising Antitumor Activity in a Pancreatic Cancer Xenograft Mouse Model” (J Nat Prod, 2023).
Active and inactive are the calls of the source. The rule behind the calls is not given here.

Tests used:
PANC-1 [1] = test: Antimetastatic activity in human PANC-1 cells in nutrient-rich medium assessed as open wound area at 20 uM measured every 15 mins for 48 hrs by live cell imaging analysis relative to control; format: functional
MIA PaCa-2 [2] = test: Antitumor activity against human MIA PaCa-2 cells xenografted in athymic BALB/c-nu mouse assessed as fold change in valine level in tumor at 10 mg/kg/day, ip administered five times per week for 4 weeks by LC-MS analysis; format: functional
MIA PaCa-2 [3] = test: Antitumor activity against human MIA PaCa-2 cells xenografted in athymic BALB/c-nu mouse assessed as fold change in D-glucuronic acid level in tumor at 2 mg/kg/day, ip administered five times per week for 4 weeks by LC-MS analysis; format: functional
PANC-1 [4] = test: Antimetastatic activity in human PANC-1 cells in DMEM media assessed as inhibition of colony formation at 10 uM incubated for 24 hrs followed by replacement with fresh medium and measured after 10 days by crystal violet staining-based assay relative to control; format: functional
MIA PaCa-2 [5] = test: Antitumor activity against human MIA PaCa-2 cells xenografted in athymic BALB/c-nu mouse assessed as fold change in cytidine 5'-monophosphate-N-acetylneuraminic acid level in tumor at 10 mg/kg/day, ip administered five times per week for 4 weeks by LC-MS analysis; format: functional
MIA PaCa-2 [6] = test: Antitumor activity against human MIA PaCa-2 cells xenografted in athymic BALB/c-nu mouse assessed as fold change in arabinosyl hypoxanthine level in tumor at 10 mg/kg/day, ip administered five times per week for 4 weeks by LC-MS analysis; format: functional
MIA PaCa-2 [7] = test: Antitumor activity against human MIA PaCa-2 cells xenografted in athymic BALB/c-nu mouse assessed as fold change in cytidine diphosphate ethanolamine level in tumor at 2 mg/kg/day, ip administered five times per week for 4 weeks by LC-MS analysis; format: functional
MIA PaCa-2 [8] = test: Antitumor activity against human MIA PaCa-2 cells xenografted in athymic BALB/c-nu mouse assessed as reduction in LC3-II level in tumor at 2 to 10 mg/kg/day, ip administered five times per week for 4 weeks by immunohistochemistry analysis; format: functional, organism-based; conditions: dose 2-10 mg/kg/day
MIA PaCa-2 [9] = test: Inhibition of autophagy in human MIA PaCa-2 cells in nutrient-deprived medium assessed as downregulation of LC3-I protein expression measured after 6 hrs by Western blot analysis; format: functional, cell-based; conditions: dose 5-20 µM
MIA PaCa-2 [10] = test: Antitumor activity against human MIA PaCa-2 cells xenografted in athymic BALB/c-nu mouse assessed as fold change in 5'-methylthioadenosine level in tumor at 10 mg/kg/day, ip administered five times per week for 4 weeks by LC-MS analysis; format: functional
PANC-1 [11] = test: Inhibition of Akt/mTOR signaling pathway in human PANC-1 cells in nutrient-deprived medium assessed as reduction in mTOR phosphorylation at S2481 residue measured after 6 hrs by Western blot analysis; format: cell-based; conditions: dose 5-20 µM
MIA PaCa-2 [12] = test: Antitumor activity against human MIA PaCa-2 cells xenografted in athymic BALB/c-nu mouse assessed as fold change in tetramethyl urea level in tumor at 10 mg/kg/day, ip administered five times per week for 4 weeks by LC-MS analysis; format: functional
MIA PaCa-2 [13] = test: Antitumor activity against human MIA PaCa-2 cells xenografted in athymic BALB/c-nu mouse assessed as fold change in leucine level in tumor at 2 mg/kg/day, ip administered five times per week for 4 weeks by LC-MS analysis; format: functional
PANC-1 [14] = test: Antimetastatic activity in human PANC-1 cells in DMEM media assessed as inhibition of colony formation at 40 uM incubated for 24 hrs followed by replacement with fresh medium and measured after 10 days by crystal violet staining-based assay relative to control; format: functional
MIA PaCa-2 [15] = test: Antitumor activity against human MIA PaCa-2 cells xenografted in athymic BALB/c-nu mouse assessed as fold change in cytidine 5'-monophosphate-Neu5Ac level in tumor at 2 mg/kg/day, ip administered five times per week for 4 weeks by LC-MS analysis; format: functional
MIA PaCa-2 [16] = test: Antitumor activity against human MIA PaCa-2 cells xenografted in athymic BALB/c-nu mouse assessed as fold change in tyrosine level in tumor at 2 mg/kg/day, ip administered five times per week for 4 weeks by LC-MS analysis; format: functional
MIA PaCa-2 [17] = test: Antitumor activity against human MIA PaCa-2 cells xenografted in athymic BALB/c-nu mouse assessed as fold change in serine level in tumor at 2 mg/kg/day, ip administered five times per week for 4 weeks by LC-MS analysis; format: functional
MIA PaCa-2 [18] = test: Antitumor activity against human MIA PaCa-2 cells xenografted in athymic BALB/c-nu mouse assessed as fold change in glycerol-3-phosphate level in tumor at 10 mg/kg/day, ip administered five times per week for 4 weeks by LC-MS analysis; format: functional
MIA PaCa-2 [19] = test: Antitumor activity against human MIA PaCa-2 cells xenografted in athymic BALB/c-nu mouse assessed as fold change in proline level in tumor at 10 mg/kg/day, ip administered five times per week for 4 weeks by LC-MS analysis; format: functional
MIA PaCa-2 [20] = test: Antitumor activity against human MIA PaCa-2 cells xenografted in athymic BALB/c-nu mouse assessed as fold change in 2'-deoxycytidine level in tumor at 2 mg/kg/day, ip administered five times per week for 4 weeks by LC-MS analysis; format: functional
MIA PaCa-2 [21] = test: Antitumor activity against human MIA PaCa-2 cells xenografted in athymic BALB/c-nu mouse assessed as fold change in 5'-methylthioadenosine level in tumor at 2 mg/kg/day, ip administered five times per week for 4 weeks by LC-MS analysis; format: functional
MIA PaCa-2 [22] = test: Antitumor activity against human MIA PaCa-2 cells xenografted in athymic BALB/c-nu mouse assessed as fold change in valine level in tumor at 2 mg/kg/day, ip administered five times per week for 4 weeks by LC-MS analysis; format: functional
MIA PaCa-2 [23] = test: Antitumor activity against human MIA PaCa-2 cells xenografted in athymic BALB/c-nu mouse assessed as fold change in glutamic acid level in tumor at 10 mg/kg/day, ip administered five times per week for 4 weeks by LC-MS analysis; format: functional
MIA PaCa-2 [24] = test: Antitumor activity against human MIA PaCa-2 cells xenografted in athymic BALB/c-nu mouse assessed as tumor wet weight at 10 mg/kg/day, ip administered five times per week for 4 weeks (reference value: 368 mg); format: functional
MIA PaCa-2 [25] = test: Antitumor activity against human MIA PaCa-2 cells xenografted in athymic BALB/c-nu mouse assessed as fold change in asparagine level in tumor at 10 mg/kg/day, ip administered five times per week for 4 weeks by LC-MS analysis; format: functional
PANC-1 [26] = test: Inhibition of Akt/mTOR signaling pathway in human PANC-1 cells in DMEM media assessed as reduction in mTOR phosphorylation at S2481 residue at 5 to 20 uM measured after 6 hrs by Western blot analysis; format: cell-based; conditions: dose 5-20 µM
PANC-1 [27] = test: Preferential cytotoxicity against human PANC-1 cells in nutrient-deprived medium assessed as alteration in cell morphology by measuring cell blebbing at 5 uM measured after 24 hrs by acridine orange and ethidium bromide dual fluorescent staining based imaging analysis; format: functional
MIA PaCa-2 [28] = test: Inhibition of autophagy in human MIA PaCa-2 cells in nutrient-deprived medium assessed as downregulation of LC3-II protein expression measured after 6 hrs by Western blot analysis; format: functional, cell-based; conditions: dose 5-20 µM

Compound: COc1cc(O)c(C(=O)[C@@H]2CC=C(CCC=C(C)C)C[C@H]2c2ccccc2)c(O)c1
- Activity (PANC-1 [1]): 24%
- fold change (FC) (MIA PaCa-2 [2]): 0.47
- fold change (FC) (MIA PaCa-2 [3]): 1.03
- inhibition at 10 µM (PANC-1 [4]): 67%
- fold change (FC) (MIA PaCa-2 [5]): 0.31
- fold change (FC) (MIA PaCa-2 [6]): 0.21
- fold change (FC) (MIA PaCa-2 [7]): 0.4
- Activity (MIA PaCa-2 [8]): Active
- inhibition (MIA PaCa-2 [9]): Dose-Dependent Effect
- fold change (FC) (MIA PaCa-2 [10]): 0.25
- inhibition (PANC-1 [11]): Dose-Dependent Effect
- fold change (FC) (MIA PaCa-2 [12]): 0.51
- fold change (FC) (MIA PaCa-2 [13]): 0.43
- inhibition at 40 µM (PANC-1 [14]): 92%
- fold change (FC) (MIA PaCa-2 [15]): 0.43
- fold change (FC) (MIA PaCa-2 [16]): 0.41
- fold change (FC) (MIA PaCa-2 [17]): 0.49
- fold change (FC) (MIA PaCa-2 [18]): 0.24
- fold change (FC) (MIA PaCa-2 [19]): 0.53
- fold change (FC) (MIA PaCa-2 [20]): 0.63
- fold change (FC) (MIA PaCa-2 [21]): 0.33
- fold change (FC) (MIA PaCa-2 [22]): 0.44
- fold change (FC) (MIA PaCa-2 [23]): 0.25
- Activity (MIA PaCa-2 [24]): 119 mg
- fold change (FC) (MIA PaCa-2 [25]): 0.29
- inhibition (PANC-1 [26]): inactive
- Activity (PANC-1 [27]): Active
- inhibition (MIA PaCa-2 [28]): Dose-Dependent Effect
